The values below come from ChEMBL document CHEMBL5506050, “Discovery of Oral AMP-Activated Protein Kinase Activators for Treating Hyperlipidemia” (J Med Chem, 2024).

Molecules are shown by their SMILES. Calls of active or inactive are those of the source. The calls are words filed in the database; no cut-off is given here.

Assay [1] has as its system Syrian golden hamster. Description: Lipid lowering effect on high-fat diet-fed golden hamster harboring LDLR-/- assessed as decrease in serum LDL-C level at 6 mg/kg, po qd administered via gavage measured after 8 weeks. The format is functional, organism-based. The conditions noted are these: Mesocricetus auratus.
Assay [2] relates to Syrian golden hamster. As to the kind of experiment: Effect on serum TG level in high-fat diet-fed golden hamster harboring LDLR-/- at 6 mg/kg, po qd administered via gavage measured after 8 weeks. The format is functional, organism-based. The conditions noted are these: Mesocricetus auratus.
The test system of assay [3] is Mus musculus. As to the kind of experiment: Lipid lowering effect on high-fat diet-fed Kunming mouse assessed as serum total cholesterol level at 5 mg/kg, po qd via gavage for 7 days consecutively (reference value: 159.3 +/- 11.5 mg/dl). Type of assay: functional. The settings on record: time 7 day.
The test system of assay [4] is Syrian golden hamster. As to the kind of experiment: Lipid lowering effect on high-fat diet-fed golden hamster harboring LDLR-/- assessed as decrease in serum TC level at 6 mg/kg, po qd administered via gavage measured after 8 weeks. Type of assay: functional, organism-based. The settings on record: Mesocricetus auratus.
Assay [5] deals with Syrian golden hamster. As to the kind of experiment: Effect on adipose tissue weight in high-fat diet-fed golden hamster at 6 mg/kg, po qd administered via gavage measured after 4 weeks. The format is functional, organism-based. The conditions noted are these: Mesocricetus auratus.
Assay [6] relates to Mus musculus. Description: Lipid lowering effect on high-fat diet-fed Kunming mouse assessed as serum total cholesterol level at 130 mg/kg, po qd via gavage for 7 days consecutively (reference value: 159.3 +/- 11.5 mg/dl). The format is functional. The settings on record: time 7 day.
Assay [7] has as its target T1, AMP-activated protein kinase (AMPK) alpha-1/beta-1/gamma-1 (Homo sapiens) (UniProt P54619+Q9Y478+Q13131). Description: Activation of AMPK alpha1/AMPKbeta1/AMPKgamma1 (unknown origin) using SAMS peptide as substrate at. The conditions noted are these: filed as activator, dose < 70.3 µM, time 20.0 min. The format is protein-complex assay.
The test system of assay [8] is Mus musculus. Description: Lipid lowering effect on high-fat diet-fed Kunming mouse assessed as decrease in body weight at 50 mg/kg, po qd via gavage for 7 days consecutively. The format is functional, organism-based. The settings on record: time 7.0 day.
In assay [9] the target is AMP-activated protein kinase (AMPK) alpha-1/beta-1/gamma-1 (Homo sapiens, UniProt P54619+Q13131+Q9Y478). Description: Activation of AMPK alpha1/AMPKbeta1/AMPKgamma1 (unknown origin) using SAMS peptide as substrate incubated for 20 mins in presence of [gamma-32P]ATP by scintillation counter analysis. Type of assay: protein-complex assay.
AMP-activated protein kinase (AMPK) alpha-1/beta-1/gamma-1, sequence (P54619 whole entry): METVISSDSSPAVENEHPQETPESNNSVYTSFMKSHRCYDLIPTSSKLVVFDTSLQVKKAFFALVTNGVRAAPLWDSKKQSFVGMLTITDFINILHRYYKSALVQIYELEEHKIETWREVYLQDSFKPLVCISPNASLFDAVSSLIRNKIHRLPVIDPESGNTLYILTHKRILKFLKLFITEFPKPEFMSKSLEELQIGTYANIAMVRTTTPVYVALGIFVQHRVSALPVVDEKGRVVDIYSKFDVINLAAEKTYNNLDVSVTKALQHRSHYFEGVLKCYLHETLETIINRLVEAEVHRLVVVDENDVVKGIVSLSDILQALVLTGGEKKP
AMP-activated protein kinase (AMPK) alpha-1/beta-1/gamma-1, sequence (Q9Y478 whole entry): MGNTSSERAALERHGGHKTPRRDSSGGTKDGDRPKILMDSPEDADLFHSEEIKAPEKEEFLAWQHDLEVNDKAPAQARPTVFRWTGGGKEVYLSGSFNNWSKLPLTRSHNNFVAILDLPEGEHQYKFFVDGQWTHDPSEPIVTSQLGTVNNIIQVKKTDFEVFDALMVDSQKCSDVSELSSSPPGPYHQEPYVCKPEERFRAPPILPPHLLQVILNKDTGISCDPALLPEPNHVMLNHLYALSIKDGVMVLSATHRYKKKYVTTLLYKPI
AMP-activated protein kinase (AMPK) alpha-1/beta-1/gamma-1, sequence (Q13131 whole entry): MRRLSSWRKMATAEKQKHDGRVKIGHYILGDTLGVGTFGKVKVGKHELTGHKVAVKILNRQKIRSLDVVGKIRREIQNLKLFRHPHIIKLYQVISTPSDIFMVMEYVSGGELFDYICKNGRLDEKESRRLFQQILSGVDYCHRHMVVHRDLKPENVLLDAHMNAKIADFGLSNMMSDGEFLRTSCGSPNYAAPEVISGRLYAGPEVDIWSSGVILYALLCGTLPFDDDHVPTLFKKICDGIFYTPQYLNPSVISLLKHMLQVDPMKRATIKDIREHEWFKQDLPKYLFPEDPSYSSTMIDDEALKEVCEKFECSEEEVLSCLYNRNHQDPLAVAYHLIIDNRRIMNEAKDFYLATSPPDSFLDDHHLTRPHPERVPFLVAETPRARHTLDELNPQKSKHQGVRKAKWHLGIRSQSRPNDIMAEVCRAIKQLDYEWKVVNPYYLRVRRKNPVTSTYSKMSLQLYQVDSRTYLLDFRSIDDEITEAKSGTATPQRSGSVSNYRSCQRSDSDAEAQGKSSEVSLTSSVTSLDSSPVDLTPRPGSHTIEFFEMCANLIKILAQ
Assay [10] relates to Mus musculus. Description: Lipid lowering effect on high-fat diet-fed Kunming mouse assessed as serum total cholesterol level at 50 mg/kg, po qd via gavage for 7 days consecutively (reference value: 159.3 +/- 11.5 mg/dl). The settings on record: time 7 day. Type of assay: functional.
The target in assay [11] is T1, AMP-activated protein kinase (AMPK) alpha-1/beta-1/gamma-1 (Homo sapiens). Description: Activation of AMPK alpha1/AMPKbeta1/AMPKgamma1 (unknown origin) using SAMS peptide as substrate assessed as relative enzyme activity at 10 uM incubated for 20 mins in presence of [gamma-32P]ATP by scintillation counter analysis. The format is protein-complex assay. The conditions noted are these: filed as activator.

Assay [12] has as its system Syrian golden hamster. As to the kind of experiment: Effect on adipose tissue weight in high-fat diet-fed golden hamster administered orally once daily via gavage measured after 4 weeks. Type of assay: functional, organism-based. The conditions noted are these: Mesocricetus auratus, route po.
The test system of assay [13] is Syrian golden hamster. Description: Lipid lowering effect on high-fat diet-fed golden hamster assessed as decrease in ALT level in liver administered orally once daily via gavage measured after 4 weeks. Type of assay: functional, organism-based. The conditions noted are these: Mesocricetus auratus, route po.
Assay [14] concerns Syrian golden hamster. Description: Lipid lowering effect on high-fat diet-fed golden hamster assessed as decrease in TG level in liver administered orally once daily via gavage measured after 4 weeks. The settings on record: Mesocricetus auratus, route po. Type of assay: functional, organism-based.
Assay [15] has as its system Syrian golden hamster. Description: Lipid lowering effect on high-fat diet-fed golden hamster assessed as decrease in TC level in liver administered orally once daily via gavage measured after 4 weeks. The format is functional, organism-based. The conditions noted are these: Mesocricetus auratus, route po.
For assay [16], the system named is Syrian golden hamster. Description: Effect on liver weight in high-fat diet-fed golden hamster administered orally once daily via gavage measured after 4 weeks. Type of assay: functional, organism-based. The conditions noted are these: Mesocricetus auratus, route po.

T1 sequence (P54619 whole entry): as the sequence (P54619 whole entry) above
T1 sequence (Q13131 whole entry partner): as the sequence (Q13131 whole entry) above
T1 sequence (Q9Y478 2-270 partner limits assumed): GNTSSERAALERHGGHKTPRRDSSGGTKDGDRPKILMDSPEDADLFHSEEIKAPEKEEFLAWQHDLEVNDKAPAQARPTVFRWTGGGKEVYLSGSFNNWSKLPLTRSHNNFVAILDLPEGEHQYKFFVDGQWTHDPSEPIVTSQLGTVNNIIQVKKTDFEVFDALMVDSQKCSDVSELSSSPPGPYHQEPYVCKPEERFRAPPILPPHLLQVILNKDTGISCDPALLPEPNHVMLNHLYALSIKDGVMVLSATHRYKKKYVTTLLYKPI

`CCC(C)(C)C(=O)O[C@H]1C[C@@H](C)C=C2C=C[C@H](C)[C@H](CC[C@@H]3C[C@@H](O)CC(=O)O3)[C@H]21` [SIMVASTATIN]: the result in the assay on Syrian golden hamster [1] and in the assay with Syrian golden hamster [4] was Active. Moreover, the result in the assay with Syrian golden hamster [2] and with Syrian golden hamster [5] was inactive. The Activity with Mus musculus [3] came to 129.4 mg/dL.
Take `CC(C)(Sc1cc(C(C)(C)C)c(O)c(C(C)(C)C)c1)Sc1cc(C(C)(C)C)c(O)c(C(C)(C)C)c1` [PROBUCOL]: in the assay on Mus musculus [6], the Activity is 130 mg/dL.
Regarding `COc1ccc(C(C)Nc2ncnc3c2ncn3[C@@H]2O[C@H](CO)[C@@H](O)[C@H]2O)cc1` (stereo partly specified), the outcome (in assay [7]; in the assay on Mus musculus [8]) was Active. In addition, the EC50 in assay [9] is 0.016 µM. For the same compound, the Activity was 120.3 mg/dL in the assay on Mus musculus [10] and 2.1 in assay [11].
For `CC(C)OC(=O)C(C)(C)Oc1ccc(C(=O)c2ccc(Cl)cc2)cc1`, the result in the assay with Syrian golden hamster [12] and in the assay with Syrian golden hamster [16] was inactive. For the same compound, the result with Syrian golden hamster [13], with Syrian golden hamster [14] and in the assay on Syrian golden hamster [15] was Active.
